The results in this text go back to patent US5506340A, “Tumor necrosis factor inhibitors” (Centecor, Inc., priority 1994, dated 1996).

No end group written: not given here.

T1 sequence (P01375 77-233 limits assumed): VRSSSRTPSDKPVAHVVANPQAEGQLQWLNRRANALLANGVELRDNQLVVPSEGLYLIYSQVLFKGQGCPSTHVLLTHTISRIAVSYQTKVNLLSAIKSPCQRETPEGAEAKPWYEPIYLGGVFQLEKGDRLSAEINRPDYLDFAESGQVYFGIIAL

This assay concerns the target T1, human TNFα (Homo sapiens, UniProt P01375).
T1 construct: purchased Biosource, Camarillo, Calif
The assay is described as follows: p55 receptor/IgG fusion protein binding assay (inhibition of TNFα capture by p55-Ig coated plate). The conditions noted are these: TNFα 25 ng/ml preincubated with peptide, read-out: IC50 (concentration necessary to inhibit TNFα by 50%), inhibition of binding of TNFα to p55TNFr-IgG chimeric construct. On the procedure:
This assay was designed to identify peptides which bind to human TNFα and thereby prevent the capture of the TNFα by a microtiter plate coated with p55-Ig fusion protein. A constant concentration of human TNFα is preincubated with the test peptide and then incubated on the p55-Ig coated microtiter wells. Bound TNFα is detected using a specific antisera and an alkaline phosphatase-conjugated probe.
A 96-well, U-bottom polyvinylchloride microtiter plate was coated with 50 μl/well of p55-Ig fusion protein at 5 μg/ml in 0.01M sodium phosphate, 0.15M sodium chloride (PBS) by incubation overnight at 4° C. or 2 hours at 37° C. […] 29, 1993 which is incorporated herein by reference. The plate was washed three times with 0.05% Tween-20 in PBS, then blocked, by adding 150 μl/well of assay buffer (10 mM N-2-hydroxyethylpiperazine-N'-[…] (HEPES) pH 7.2, containing 0.1% porcine gelatin, 0.1% Tween-80, and 0.01% sodium azide) and continuing incubation for 1 hour at 37° C. or at 4° C. for 1-7 days.
Lyophilized peptides to be tested were weighed in tared 12×75 mm polystyrene tubes and reconstituted to a concentration of 1.2 mM with assay buffer. Each suspension was sonicated in a water bath for 1-5 minutes and vortexed 15-30 seconds to disperse large particles. Serial dilutions of each peptide suspension were prepared using assay buffer in a 96-well polystyrene microtiter plate. Additional wells received Fab fragment of the mouse/human monoclonal anti-human TNFα antibody cA2 (positive control) or assay buffer (negative control). […] The polystyrene dilution plate was then sealed and incubated 1 hour at room temperature on an orbital mixer set at moderate speed.
Following the sample preincubation, blocker was discarded from the p55-Ig coated plate and blotted dry. Aliquots (50 μl) of each peptide or control were transferred into duplicate wells on the p55-Ig coated plate which was then sealed and incubated 1 hour at 37° C. Duplicate wells containing only assay buffer were included as a plate blank. After incubation the p55-Ig plate was washed three times with 0.05% Tween-20 in PBS.
All incubations were for 1 hour at 37° C. and after each incubation the plate was washed three times with 0.05% Tween-20 in PBS. Fifty microliters of alkaline phosphatase substrate solution (alkaline buffer (Sigma, St. Louis, Mo.) diluted 1:500 in deionized water plus one 5 mg tablet of p-nitrophenyl phosphate (Sigma, St. Louis, Mo.) per 5 ml of diluted buffer) was added to all wells and incubation continued for 20 minutes at room temperature. Color development was stopped by adding to all wells 50 μl of 3N sodium hydroxide. The optical density (OD) at 405 nm was measured on a microtiter plate reader (Molecular Devices Vmax plate reader), with the plate blank wells subtracted as background. The activity of each peptide was then expressed as the percent inhibition of TNFα capture by the p55-Ig plate, relative to the amount of TNFα captured in wells containing only assay buffer (negative control), as follows:
The inhibition of binding of TNFα to p55TNFr-IgG chimeric construct was performed as described above using several embodiments of the invention. The peptides were tested to determine the concentration necessary to inhibit TNFα by 50% (IC50) relative to TNFα activity in the absence of the peptide.
As to MVYPGLQEPWLHSMY-NH2, the IC50 amounted to 850 µM.
Under PGLQEPWLHSMYHGA-NH2 stands 600 µM.
The same measure for QEPWLHSMYHGAAFQ-NH2: 310 µM; for WLHSMYHGAAFQLTQ-NH2: 480 µM.
Take YLAHEVQLFSSQYPF-NH2: the IC50 was 370 µM.
